A short description of one data set: Caco-2 cell permeability. It counts as in vitro ADME. To be noted: human; for Papp A→B at 1 h, 10 µM: Caco-2, apical-to-basolateral; for efflux ratio at 1 h, 10 µM: Caco-2 efflux ratio (B-A/A-B), read-out: ER. The procedure:
Permeability: bi-directional Caco-2 cell permeability was performed by Charles River Laboratories Inc. (ADME-SOP-49). Briefly, compounds were administered at 10 µM (1% DMSO final) to the apical or basolateral side of a polarised Caco-2 cell monolayer, then incubated at 37 °C for 60 minutes before appearance on the opposite side of the monolayer was determined by mass spectrometry. The efflux ratio (ER) is calculated from the ratio of B-A […]
Background: Caco-2 cells form a polarised layer with tight junctions and transporters.

Another data set addresses PKCz (Homo sapiens, UniProt Q05513). Briefly: Kinase panel, radiometric 33P filter binding. To be noted: read-out: % activity remaining.
In a further data set the target is CDK2-Cyclin A (Homo sapiens, UniProt P24941). Put plainly: Kinase panel, radiometric 33P filter binding. The conditions noted are these: read-out: % activity remaining.
In the next data set the target is TSSK1 (Homo sapiens, UniProt Q9BXA7). Briefly: Kinase panel, radiometric 33P filter binding. The conditions noted are these: read-out: % activity remaining.
The target of another data set is MLK3 (Homo sapiens, UniProt Q16584). Put plainly: Kinase panel, radiometric 33P filter binding. The conditions noted are these: read-out: % activity remaining.
The target in another data set is T1, PI5P4Kα-WT (Homo sapiens, UniProt P48426).
T1 sequence (P48426 1-406): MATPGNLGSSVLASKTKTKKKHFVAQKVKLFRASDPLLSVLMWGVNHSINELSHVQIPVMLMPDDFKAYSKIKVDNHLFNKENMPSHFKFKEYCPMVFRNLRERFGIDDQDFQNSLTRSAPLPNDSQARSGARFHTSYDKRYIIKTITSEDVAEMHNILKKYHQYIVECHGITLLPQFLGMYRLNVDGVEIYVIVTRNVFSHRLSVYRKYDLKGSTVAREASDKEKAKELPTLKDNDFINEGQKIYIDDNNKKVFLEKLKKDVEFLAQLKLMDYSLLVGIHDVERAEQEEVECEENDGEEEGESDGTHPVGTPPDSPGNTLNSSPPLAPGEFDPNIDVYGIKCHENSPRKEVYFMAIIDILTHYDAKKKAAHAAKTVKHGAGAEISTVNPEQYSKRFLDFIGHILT
Briefly: ADP-Glo inhibition assay. The conditions noted are these: ADP-Glo. For orientation: In ADP-Glo the light output rises with the ADP produced.

In the next data set the target is SYK (Homo sapiens, UniProt P43405). Put plainly: Kinase panel, radiometric 33P filter binding. To be noted: read-out: % activity remaining.
In data set [1] the target is T2, PI5P4Kγ-WT (Homo sapiens, UniProt Q8TBX8).
T2 sequence (Q8TBX8 1-421): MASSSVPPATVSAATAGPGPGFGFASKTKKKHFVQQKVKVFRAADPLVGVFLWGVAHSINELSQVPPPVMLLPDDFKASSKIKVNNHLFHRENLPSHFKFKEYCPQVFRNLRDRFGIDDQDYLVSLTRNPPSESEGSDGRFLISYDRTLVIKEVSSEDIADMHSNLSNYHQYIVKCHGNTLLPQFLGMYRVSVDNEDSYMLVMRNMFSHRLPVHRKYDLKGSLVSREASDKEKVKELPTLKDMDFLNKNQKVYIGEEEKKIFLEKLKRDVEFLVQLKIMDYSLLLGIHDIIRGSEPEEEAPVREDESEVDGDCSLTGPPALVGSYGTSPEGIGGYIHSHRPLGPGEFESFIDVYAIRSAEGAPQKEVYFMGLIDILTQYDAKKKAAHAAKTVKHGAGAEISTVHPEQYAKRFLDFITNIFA
Briefly: InCell Pulse cellular target engagement (thermal stabilisation) in HEK293 cells. In kind it is cell-based. As to the method: The binding of compounds to PI5P4Kγ in intact cells was assessed using an InCell Pulse thermal stabilisation assay (DiscoverX). […] The plate was then incubated for 60 min in the dark prior to luminescence reading using a Pherastar FSX plate reader (BMG Labtech).
Statistical analysis was performed using nonparametric testing in Prism 8 (GraphPad). Activity pIC50 values and in vivo binding pEC50 values were estimated using a 4-parameter fit (Dotmatics).

In another data set the target is T3, PI5P4Kβ-WT (Homo sapiens, UniProt P78356).
T3 sequence (P78356 1-416): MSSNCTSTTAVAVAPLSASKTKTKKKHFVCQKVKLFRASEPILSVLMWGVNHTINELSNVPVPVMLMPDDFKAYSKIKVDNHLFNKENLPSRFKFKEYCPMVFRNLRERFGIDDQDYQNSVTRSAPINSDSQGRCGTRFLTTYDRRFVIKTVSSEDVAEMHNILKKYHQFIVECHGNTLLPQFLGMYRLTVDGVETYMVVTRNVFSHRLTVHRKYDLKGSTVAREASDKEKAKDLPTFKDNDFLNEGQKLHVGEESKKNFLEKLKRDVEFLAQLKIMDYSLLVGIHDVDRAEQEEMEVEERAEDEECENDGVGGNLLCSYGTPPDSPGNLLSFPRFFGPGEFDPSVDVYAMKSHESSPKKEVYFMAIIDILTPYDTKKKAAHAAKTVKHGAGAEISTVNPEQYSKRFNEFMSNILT
Briefly: ADP-Glo inhibition assay. The conditions noted are these: ADP-Glo.

A further data set addresses T4, PI5P4Kα (Homo sapiens, UniProt P48426).
T4 sequence (P48426 1-406): T1 sequence (P48426 1-406)
Briefly: Adapta TR-FRET assay (Thermo Fisher). Also noted: purchased Thermo Fisher. In kind it is biochemical. The procedure: Table S7. PI5P4Kα adapta assay results for compounds 1 and 40.a
Compound PI5P4Kα adapta IC50 (nM) […]
a The experiments were run by Thermo Fisher. This assay is a TR-FRET based assay using an Eu-anti-ADP antibody, the conditions are: the 2X PIP4Kα/PI(5)P mixture is prepared in 50 mM HEPES pH 7.5, 0.1% CHAPS, 1 mM EGTA, 4 mM MgCl2. The final 10 μL Kinase Reaction consists of 1.5 - 6 ng PIP4Kα and 50 μM PI(5)P in 32.5 mM HEPES pH 7.5, 0.05% CHAPS, 0.5 mM EGTA, 2 mM MgCl2. After the 1 hour Kinase Reaction incubation, 5 μL of Detection Mix is added. The Detection mix consists of EDTA (30mM), Eu-anti-ADP antibody (6 nM) and ADP tracer in TR-FRET buffer. The detection mix contains the EC60 concentration of tracer for 5-

Data set [2] deals with T2, PI5P4Kγ-WT. Put plainly: Thermal shift assay. To be noted: read-out: ΔTm PI5P4Kγ WT, thermal shift, compound 63 μM.
Data set [3] in a line: Liver microsomal stability. It counts as in vitro ADME. The conditions noted are these: liver microsomes; Human liver microsomal hepatic stability; read-out: HLM t1/2. In general terms: Microsomes from liver hold many membrane-bound enzymes, among them those of drug oxidation.
Data set [4] is described as follows: Chromatographic LogD (HPLC method). It counts as physicochemical. To be noted: pH 7.4, read-out: mchrom log D7.4. As to the method:
5-100% gradient of MeCN in 50mM NH4OAc in H 2O adjusted to pH 7.4. […]

PKCz, sequence (Q05513 whole entry): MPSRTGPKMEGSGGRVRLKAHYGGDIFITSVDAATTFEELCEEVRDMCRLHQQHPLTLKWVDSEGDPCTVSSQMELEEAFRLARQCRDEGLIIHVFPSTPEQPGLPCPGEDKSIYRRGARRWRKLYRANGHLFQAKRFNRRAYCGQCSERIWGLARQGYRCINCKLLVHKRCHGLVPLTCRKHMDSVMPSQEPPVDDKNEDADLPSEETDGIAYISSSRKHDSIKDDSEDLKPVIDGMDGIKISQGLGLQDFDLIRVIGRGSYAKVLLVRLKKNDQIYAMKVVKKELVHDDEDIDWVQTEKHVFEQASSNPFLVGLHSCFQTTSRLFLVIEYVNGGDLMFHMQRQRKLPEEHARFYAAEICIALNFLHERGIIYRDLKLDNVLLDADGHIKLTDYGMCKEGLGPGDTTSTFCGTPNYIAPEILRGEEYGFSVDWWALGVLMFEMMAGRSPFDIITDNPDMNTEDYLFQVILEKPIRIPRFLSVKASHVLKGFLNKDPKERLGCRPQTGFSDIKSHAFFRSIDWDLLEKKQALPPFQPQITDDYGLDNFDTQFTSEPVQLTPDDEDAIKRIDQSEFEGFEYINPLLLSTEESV
MLK3, sequence (Q16584 whole entry): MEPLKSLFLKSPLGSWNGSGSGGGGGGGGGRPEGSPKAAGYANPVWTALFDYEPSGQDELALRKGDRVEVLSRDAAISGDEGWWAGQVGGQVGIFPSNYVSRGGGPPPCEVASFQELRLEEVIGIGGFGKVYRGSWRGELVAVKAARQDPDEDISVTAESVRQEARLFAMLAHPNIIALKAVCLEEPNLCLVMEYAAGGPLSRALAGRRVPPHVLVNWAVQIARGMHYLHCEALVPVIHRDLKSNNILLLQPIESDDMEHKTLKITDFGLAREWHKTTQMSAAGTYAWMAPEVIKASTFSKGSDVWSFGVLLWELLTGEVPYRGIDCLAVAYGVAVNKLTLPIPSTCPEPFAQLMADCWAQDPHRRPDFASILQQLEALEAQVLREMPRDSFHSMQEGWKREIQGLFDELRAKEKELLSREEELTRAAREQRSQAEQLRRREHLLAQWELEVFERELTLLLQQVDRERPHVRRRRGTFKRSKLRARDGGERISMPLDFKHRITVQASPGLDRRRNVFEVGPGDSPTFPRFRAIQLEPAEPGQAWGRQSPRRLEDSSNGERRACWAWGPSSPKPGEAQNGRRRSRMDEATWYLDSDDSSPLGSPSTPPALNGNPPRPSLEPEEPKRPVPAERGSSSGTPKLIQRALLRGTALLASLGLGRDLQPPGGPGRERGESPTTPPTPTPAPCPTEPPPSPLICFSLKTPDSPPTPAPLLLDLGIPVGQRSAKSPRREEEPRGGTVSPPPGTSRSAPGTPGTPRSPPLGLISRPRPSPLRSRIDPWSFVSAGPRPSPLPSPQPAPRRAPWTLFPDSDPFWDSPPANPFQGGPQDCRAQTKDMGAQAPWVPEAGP
TSSK1, sequence (Q9BXA7 whole entry): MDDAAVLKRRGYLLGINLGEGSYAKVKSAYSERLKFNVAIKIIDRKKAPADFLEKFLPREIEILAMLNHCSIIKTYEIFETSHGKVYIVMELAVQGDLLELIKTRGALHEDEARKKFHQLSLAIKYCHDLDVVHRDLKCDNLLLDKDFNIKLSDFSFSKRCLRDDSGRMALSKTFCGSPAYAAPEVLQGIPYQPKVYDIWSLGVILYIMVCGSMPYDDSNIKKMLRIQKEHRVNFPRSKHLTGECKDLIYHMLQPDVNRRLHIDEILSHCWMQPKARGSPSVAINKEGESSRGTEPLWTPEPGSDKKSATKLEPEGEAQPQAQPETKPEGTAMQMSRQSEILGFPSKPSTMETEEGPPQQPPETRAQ
Excerpt for CDK2-Cyclin A: (§1) filter binding assay using 33P-g-ATPat the MRC PPU International Centre for Kinase Profiling, University of
Excerpt for MLK3: as §1
Excerpt for PI5P4Kα-WT: (§2) To enable direct comparisons, Promega’s ADP-Glo reporter assay was developed using a mutant form of the kinase. […] To mitigate concerns about being misled by the use of the PI5P4Kγ+ construct and the possible introduction of PI5P4Kα activity into the molecules, our screening cascade included the measurement of ADP-Glo activity at PI5P4Kα-WT (and PI5P4Kβ-WT to fully understand emerging selectivity profiles).
Excerpt for PI5P4Kβ-WT: as §2
Excerpt for PKCz: as §1
Excerpt for TSSK1: as §1

`CC(C)c1ccccc1-c1nc(NCc2ccccn2)c2c(ccn2C)n1` [Compound 40]: the Papp A→B (as a rule, how fast a substance crosses the layer from the apical side) at 1 h, 10 µM in “Caco-2 cell permeability” turned out to be 122 ×10⁻⁶ cm/s. For the same compound, the efflux ratio at 1 h, 10 µM in “Caco-2 cell permeability” was 0.4. Further, the remaining activity (in general, the signal under treatment as a percentage of the control signal) at 10 µM was determined as 111% on PKCz; 103% on CDK2-Cyclin A; 96% at TSSK1; 90% at MLK3; 91% at SYK. Moreover, the “PI5P4Kα pIC50” value at PI5P4Kα-WT is reported as under 4.3. Further, the “cellular target engagement with PI5P4Kγ-WT” value on PI5P4Kγ-WT [1] (InCell Pulse) is listed as “submicromolar activity”. Besides, the “Target engagement PI5P4Kγ WT pIC50” value on PI5P4Kγ-WT [1] (InCell Pulse in intact cells) was found to be 6.1. The “PI5P4Kβ pIC50” value at PI5P4Kβ-WT is under 4.6. Moreover, the IC50 (usually the concentration that inhibits the measured activity by half) against PI5P4Kα was over 30 µM. Moreover, on PI5P4Kγ-WT [2], the ΔTm at 63 µM is 6.9 °C. The half-life at 1 µM in data set [3] is 47 min. Besides, the chromatographic logD in data set [4] was determined as 4.5.
In “Caco-2 cell permeability”, `FC(F)(F)c1ccccc1-c1nc(NCc2cccs2)c2ccccc2n1` [Compound 1, NIH-12848, reference compound] came in with a Papp A→B at 1 h, 10 µM of 6.4 ×10⁻⁶ cm/s. In addition, the efflux ratio at 1 h, 10 µM in the data set “Caco-2 cell permeability” turned out to be 0.9. Besides, the “PI5P4Kα pIC50” value on PI5P4Kα-WT is under 4.3. The half-inhibitory concentration (IC50) at PI5P4Kα-WT (read-out: PI5P4Kα IC50, new data) is over 50 µM; against PI5P4Kγ-WT [1] (InCell Pulse, new data), 2.5 µM; on PI5P4Kβ-WT (read-out: PI5P4Kβ IC50, new data), over 25 µM; against PI5P4Kα, over 30 µM. The “PI5P4Kβ pIC50” value at PI5P4Kβ-WT is reported as under 4.6. At PI5P4Kγ-WT [2], the ΔTm at 63 µM amounted to 4.7 °C. For the same compound, the half-life at 1 µM in [3] came to 21 min. Also, in data set [4], the chromatographic logD turned out to be 6.3.
